Measurements as given in US9102648B1, “Bioavailable diacylhydrazine ligands for modulating the expression of exogenous genes via an ecdysone receptor complex” (Intrexon Corporation, priority 2003, dated 2015).
Read-outs that look alike come from different tables or passages of the source.

Molecular target: GAL4 DBD (1-147)-CfEcR(DEF)/VP16AD-βRXREF-LmUSPEF (Choristoneura fumiferana, UniProt O77240)
Assay: cell-based
Details: for Fold Induction, 27-63 Assay, 3.3 uM: 3.3 uM ligand; for Fold Induction, 27-63 Assay, 3.3 uM / Fold Induction, 27-63 Assay, 33 uM: RLU ligand treated / RLU DMSO treated cells; for Fold Induction, 27-63 Assay, 33 uM: 33 uM ligand; for 27-63 assay Rel Max FI: maximum fold induction at any concentration relative to that of GS-E ligand, CHO 27-63 cells; for fold induction at 33 µM: read-out: Fold Induction, 27-63 Assay, 33 uM
From the text: GAL4 DBD (1-147)-CfEcR(DEF)/VP16AD-βRXREF-LmUSPEF:
The wild-type D, E, and F domains from spruce budworm Choristoneura fumiferana EcR (“CfEcR-DEF”; SEQ ID NO: 1) were fused to a GAL4 DNA binding domain (“Gal4DBD1-147”; SEQ ID NO: 2) and placed under the control of a phosphoglycerate kinase promoter (“PGK”; SEQ ID NO: 3). Helices 1 through 8 of the EF domains from Homo sapiens RXRβ (“HsRXRβ-EF”; nucleotides 1-465 of SEQ ID NO: 4) and helices 9 through 12 of the EF domains of Locusta migratoria Ultraspiracle Protein (“LmUSP-EF”; nucleotides 403-630 of SEQ ID NO: 5) were fused to the transactivation domain from VP16 (“VP16AD”; SEQ ID NO: 6) and placed under the control of an elongation factor-1α promoter (“EF-1α”; SEQ ID NO: 7). Five consensus GAL4 response element binding sites (“5XGAL4RE”; comprising 5 copies of a GAL4RE comprising SEQ ID NO: 8) were fused to a synthetic TATA minimal promoter (SEQ ID NO: 9) and placed upstream of the luciferase reporter gene (SEQ ID NO: 10).
CHO cells were transiently transfected with transcription cassettes for GAL4 DBD (1-147) CJEcR(DEF) and for VP16AD βRXREF-LmUSPEF controlled by ubiquitously active cellular promoters (PGK and EF-la, respectively) on a single plasmid. Stably transfected cells were selected by Zeocin resistance. Individually isolated CHO cell clones were transiently transfected with a GAL4 RE-luciferase reporter (pFR Luc). 27-63 clone was selected using Hygromycin.
Cells were trypsinized and diluted to a concentration of 2.5×10^4 cells mL. 100 μL of cell suspension was placed in each well of a 96 well plate and incubated at 37° C. under 5% CO2 for 24 h. Ligand stock solutions were prepared in DMSO and diluted 300 fold for all treatments. Dose response testing consisted of 8 concentrations ranging from […] to 0.01 μM.
Luciferase reporter gene expression was measured 48 h after cell treatment using Bright-Glo™ Luciferase Assay System from Promega (E2650). Luminescence was detected at room temperature using a Dynex MLX microtiter plate luminometer.
Each assay was conducted in two separate wells, and the two values were averaged. Fold inductions were calculated by dividing relative light units (“RLU”) in ligand treated cells with RLU in DMSO treated cells. EC50s were calculated from dose response data using a three-parameter logistic model.

[1] = read-out: 27-63 assay EC50, CHO 27-63 stable cell line, luciferase reporter, average of two wells

SMILES	Fold Induction, 27-63 Assay, 3.3 uM (average of two wells)	Fold Induction, 27-63 Assay, 33 uM (average of two wells)	27-63 assay Rel Max FI	EC50 [1] [µM]	EC50 [µM]	fold induction at 33 µM
CCCCC(N(NC(=O)c1ccc(CC)cc1)C(=O)c1cc(OC)c(C)c(OC)c1)C(C)(C)C (stereo not drawn) [RG-115841]	1407	437	0.610	2.02		
CCCCC(N(NC(=O)c1ccc(CC)cc1)C(=O)c1cc(C)cc(C)c1)C(C)(C)C (stereo not drawn) [RG-115840]	1612	263	0.776	0.11		
CCc1ccc(C(=O)NN(C(=O)c2cc(C)cc(C)c2)C(c2ccccc2)C(C)(C)C)cc1 (stereo not drawn) [RG-115846]	1643	645	0.846	0.095		
CCc1ccc(C(=O)NN(C(=O)c2cccnc2OC)C(CC)C(C)(C)C)cc1 (stereo not drawn) [RG-115837]	1474	1156	0.569	1.11		
COc1cc(C(=O)N(NC(=O)c2cccc(OC)c2C)C(C)(C)C)c(=O)[nH]n1 [RG-115863]	1	804	0.154	> 33		
CCCCC(N(NC(=O)c1cccc(OC)c1C)C(=O)c1cc(C)cc(C)c1)C(C)(C)C (stereo not drawn) [RG-115851, 3,5-dimethyl-benzoic acid N-(1-tert-butyl-pentyl)-N′-(3-methoxy-2-methyl-benzoyl)-hydrazide]			1		0.02	
CCCCC(N(NC(=O)c1cccc(OC)c1C)C(=O)c1cc(OC)c(C)c(OC)c1)C(C)(C)C (stereo not drawn) [RG-115852, 3,5-dimethoxy-4-methyl-benzoic acid N-(1-tert-butyl-pentyl)-N′-(3-methoxy-2-methyl-benzoyl)-hydrazide]			1		0.07	
COc1cc(C(=O)N(NC(=O)c2cccc(OC)c2C)C(C)(C)C)c(OC)nn1 [RG-115850]	1	23	0.001	> 33		
COc1cccc(C(=O)NN(C(=O)c2ccnnc2)C(C)(C)C)c1C [RG-115862]	1	243	0.048	> 33		
CCc1c(C(=O)NN(C(=O)c2cc(OC)c(C)c(OC)c2)C(CC)C(C)(C)C)ccc2c1OCCO2 (stereo not drawn) [RG-115859, 3,5-Dimethoxy-4-methyl-benzoic acid N′-(5-ethyl-2,3-dihydro-benzo[1,4]dioxine-6-carbonyl)-N-(1-ethyl-2,2-dimethyl-propyl)-hydrazide]			1.218		0.007	1060
COc1cc(C(=O)N(NC(=O)c2cccc(OC)c2C)C(C)(C)C)nc(OC)n1 [RG-115849]	1	231	0.007	> 33		
COc1cccc(C(=O)NN(C(=O)c2ccc(C(F)(F)F)n(C)c2=O)C(C)(C)C)c1C [RG-115835]	3	1895	0.731	20		
COc1cccc(C(=O)NN(C(=O)c2cc(Cl)nnc2Cl)C(C)(C)C)c1C [RG-115861]	8	593	0.215	4.31		
CCCC(N(NC(=O)c1ccc2c(c1CC)OCCO2)C(=O)c1cc(C)cc(C)c1)C(C)(C)C (stereo not drawn) [RG-115866, 3,5-Dimethyl-benzoic acid N-(1-tert-butyl-butyl)-N′-(5-ethyl-2,3-dihydro-benzo[1,4]dioxine-6-carbonyl)-hydrazide]			0.999		0.01	3
CCCC(N(NC(=O)c1ccc2c(c1CC)OCCO2)C(=O)c1cc(OC)c(C)c(OC)c1)C(C)(C)C (stereo not drawn) [RG-115867, 3,5-Dimethoxy-4-methyl-benzoic acid N-(1-tert-butyl-butyl)-N′-(5-ethyl-2,3-dihydro-benzo[1,4]dioxine-6-carbonyl)-hydrazide]						654
CCc1ccc(C(=O)NN(C(=O)c2cccnc2OC)C(c2ccccc2)C(C)(C)C)cc1 (stereo not drawn) [RG-115848]	1346	1156	0.494	1.29		
CCc1ccc(C(=O)NN(C(=O)c2cc(C)cc(C)c2)C(CC)C(C)(C)C)cc1 (stereo not drawn) [RG-115836]	1822	823	0.808	0.098		
CCCC(N(NC(=O)c1ccc2c(c1C)OCCO2)C(=O)c1cc(OC)c(C)c(OC)c1)C(C)(C)C (stereo not drawn) [RG-115865, 3,5-Dimethoxy-4-methyl-benzoic acid N-(1-tert-butyl-butyl)-N′-(5-methyl-2,3-dihydrobenzo[1,4]dioxine-6-carbonyl)-hydrazide]			1.246		0.01	76
CCc1ccc(C(=O)NN(C(=O)c2cc(OC)c(C)c(OC)c2)C(c2ccccc2)C(C)(C)C)cc1 (racemic) [RG-115847]	2729	848	1.120	1.1		
